Reference: patent US9737517B2, “Pharmaceutical use of hexahydro-dibenzo[a,g]quinolizine compounds” (SHANGHAI INSTITUTE OF MATERIA MEDICA, CHINESE ACADEMY OF …, priority 2013, dated 2017)

Experiments:
α1B-AR [1] = molecular target: T1, α1B-AR (Homo sapiens, UniProt P35368); assay: Calcium mobilization (Fluo-4) antagonism of phenylephrine in HEK293 cells expressing α1B-AR/Gα16; assay type: cell-based; conditions: phenylephrine 30 nM
T1 construct: expressed in transfected cells; host or cells: HEK293
T1 sequence (P35368 1-520): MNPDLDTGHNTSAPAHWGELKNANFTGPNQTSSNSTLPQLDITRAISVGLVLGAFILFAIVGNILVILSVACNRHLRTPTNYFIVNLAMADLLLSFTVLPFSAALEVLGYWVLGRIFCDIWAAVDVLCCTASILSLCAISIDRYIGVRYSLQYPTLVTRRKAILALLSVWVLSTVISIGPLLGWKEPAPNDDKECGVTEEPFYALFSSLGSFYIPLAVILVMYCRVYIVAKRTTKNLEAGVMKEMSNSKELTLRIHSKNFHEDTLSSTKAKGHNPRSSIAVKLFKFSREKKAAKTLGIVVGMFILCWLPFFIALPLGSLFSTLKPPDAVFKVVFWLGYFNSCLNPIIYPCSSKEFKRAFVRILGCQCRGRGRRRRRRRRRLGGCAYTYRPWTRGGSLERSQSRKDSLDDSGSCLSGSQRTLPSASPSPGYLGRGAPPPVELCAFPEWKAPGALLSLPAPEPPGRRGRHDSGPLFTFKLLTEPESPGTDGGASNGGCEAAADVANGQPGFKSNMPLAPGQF
Experimental: (§1) HEK293 cells stably expressing α1A-AR/Gα16, α1B-AR/Gα16, α1D-AR/Gα16 were seeded in a 96-well plate, and cultured for 24 hours. Then the medium was removed and 40 μL Hank's balanced salt solution (HBSS: containing 5.4 mM KCl, 0.3 mM Na2HPO4, 0.4 mM KH2PO4, 4.2 mM NaHCO3, 1.3 mM CaCl2, 0.5 mM MgCl2, 0.6 mM MgSO4, 137 mM NaCl, 5.6 mM D-glucose, and 250 μM sulfinpyrazone, pH 7.4) containing 2 μM Fluo-4 AM was added into each well, and incubated at 37° C. for 45 min. Dye was removed and 50 μL of HBSS containing either test compound or 1% DMSO (negative control) was added. After incubation at room temperature for 10 min, Flex Station 3 microplate reader was used to read the value. At specified time points, 25 μL of agonist (phenylephrine, final concentration 30 nM) was dispensed into the well automatically using the reader and fluorescence intensity change of dye caused by intracellular calcium concentration change was detected at an excitation wavelength of 485 nm and an emission wavelength of 525 nm.
(§2) After incubation with different drugs, the reaction rate of cells to 1-AR agonist phenylephrine was calculated as follows: Reaction rate %=(D−B)/(S−B)*100%;
(§3) The reaction rate of the same drug at different doses was tested using GraphPad Prism software by non-linear regression analysis, and the dose-response curve was obtained and IC50 values was measured. Data were obtained from three separate experiments, and each experiment included three duplicate wells.

α1D-AR = molecular target: T2, α1D-AR (Homo sapiens, UniProt P25100); assay: Calcium mobilization (Fluo-4) antagonism of phenylephrine in HEK293 cells expressing α1D-AR/Gα16; assay type: cell-based; conditions: phenylephrine 30 nM
T2 construct: expressed in transfected cells; host or cells: HEK293
T2 sequence (P25100 1-572): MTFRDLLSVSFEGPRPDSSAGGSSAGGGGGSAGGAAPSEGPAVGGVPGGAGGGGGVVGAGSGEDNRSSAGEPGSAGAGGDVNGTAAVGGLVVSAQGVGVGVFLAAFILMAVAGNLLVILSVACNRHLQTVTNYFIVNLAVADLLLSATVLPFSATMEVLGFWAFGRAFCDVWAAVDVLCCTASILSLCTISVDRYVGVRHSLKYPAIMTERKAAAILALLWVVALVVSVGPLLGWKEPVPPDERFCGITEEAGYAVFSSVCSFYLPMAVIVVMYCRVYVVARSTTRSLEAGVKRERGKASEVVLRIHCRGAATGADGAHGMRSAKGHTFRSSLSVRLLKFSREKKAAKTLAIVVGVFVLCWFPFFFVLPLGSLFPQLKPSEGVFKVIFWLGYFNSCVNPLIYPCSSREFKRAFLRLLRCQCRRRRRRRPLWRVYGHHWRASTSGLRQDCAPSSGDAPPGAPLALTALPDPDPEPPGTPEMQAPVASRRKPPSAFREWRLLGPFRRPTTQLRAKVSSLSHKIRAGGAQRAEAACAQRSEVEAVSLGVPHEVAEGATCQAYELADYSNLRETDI
Experimental: as §1, §2, §3

α1A-AR [2] = molecular target: T3, α1A-AR (Homo sapiens, UniProt P35348); assay: Calcium mobilization (Fluo-4) antagonism of phenylephrine in HEK293 cells expressing α1A-AR/Gα16; assay type: cell-based; conditions: for IC50: HEK293 α1A-AR/Gα16, calcium mobilization, phenylephrine 30 nM; for α1B/α1A: ratio of cell IC50 values, calcium mobilization
T3 construct: expressed in transfected cells; host or cells: HEK293
T3 sequence (P35348 1-466): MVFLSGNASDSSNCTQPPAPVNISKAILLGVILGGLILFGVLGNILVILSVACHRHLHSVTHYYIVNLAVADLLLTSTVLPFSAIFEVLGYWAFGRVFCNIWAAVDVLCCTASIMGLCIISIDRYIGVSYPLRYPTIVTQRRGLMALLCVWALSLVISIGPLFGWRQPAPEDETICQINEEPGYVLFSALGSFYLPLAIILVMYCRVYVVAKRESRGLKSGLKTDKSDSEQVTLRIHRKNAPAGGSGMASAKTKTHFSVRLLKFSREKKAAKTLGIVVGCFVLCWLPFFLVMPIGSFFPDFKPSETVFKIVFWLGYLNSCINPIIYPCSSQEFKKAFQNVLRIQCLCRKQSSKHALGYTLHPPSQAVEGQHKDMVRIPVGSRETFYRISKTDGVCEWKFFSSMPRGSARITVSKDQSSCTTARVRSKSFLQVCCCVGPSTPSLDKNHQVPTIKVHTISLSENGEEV
Experimental: as §1, §2, §3

urethra smooth muscle = assay: In vitro urethra smooth muscle experiment (norepinephrine-induced contraction); set-up: species or system Wistar rats; Urethra inhibition rate (%): concentration or dose not given beside the values; conditions: for IC50: isolated rat prostatic urethra, norepinephrine 3×10^−4 mol/L; for Urethra inhibition rate (%): isolated rat urethra, norepinephrine-induced contraction; for Aorta/Urethra: selectivity ratio of IC50 values, isolated rat tissues
Experimental: Healthy male Wistar rats were hit head to cause faint. The abdominal cavity and the pubic symphysis was quickly cut so as to quickly remove the prostatic urethra, which was immediately placed into a dish filled with 4° C. Kerbs-Henseleit solution (K-H solution). The surrounding tissue were carefully separated, and muscle strips about 3-5 mm were obtained, and the lower end was fixed onto a 20 mL of thermostatic bath and the upper end was connected onto a pressure transducer. Nutrient liquid was K-H solution, and carbogen (95% oxygen and 5% carbon dioxide) was aerated, and the bath temperature was 37° C., and resting tension applied was 0.5 g. The nutrient liquid was replaced every 6-8 mins. Until baseline stabilized, norepinephrine was added with a final concentration of 3×10^−4 mol/L in bath tube. When the contraction curve reached the highest point, it was rinsed immediately to recover to baseline levels. When baseline was stabilized, test drug with different concentrations was added respectively, and incubated 3-5 mins. 60 μL 1×10^−1 M norepinephrine was added with a final concentration of 3×10^−4 mol/L in bath tube, and the contraction curve was recorded.

α1B-AR [3] = molecular target: T1, α1B-AR; assay: Tag-lite receptor binding assay, HEK293 cells expressing SNAP-α1B-AR
From the text: (§4) Tag-lite assay was used to study receptor binding activity. Tag-lite assay was a combination of SNAP-Tag and HTRF technology, and was used to analyze surface receptors on live cell. SNAPs were small tag fusion proteins which could irreversibly, specifically and covalently bind to substrates via benzylmethyl, and the substrates were benzylmethyl guanine and benzylmethyl cytosine. Substrates and various dyes formed derivatives, and through covalent reaction, the dye was labeled onto SANPs. Plasmid was constructed using pSNAP and α1-AR encoding gene. After transfection into cells, N-terminal fusion protein of SNAP and α1-AR was expressed. The substrate and HTRF fluorescent dye (donor compound Lumi4-Tb) formed a derivative which reacted with SANP-α1-AR fusion protein so that Tb was labeled onto α1-AR. After adding acceptor fluorescent dye-labeled ligand, the receptor and ligand binding experiment was performed.
(§5) HEK293 cells stably expressing SNAP-α1A-AR, SNAP-α1B-AR, SNAP-α1D-AR were seeded in 3 cm dishes, and cultured for 24 hours. 100 nM Tag-lite SNAP Lumi4Tb was added and incubated for 1 h in an incubator. Cells were detached and washed with a labeling buffer for 4 times, and then was added into a 384-well plate in a volume of 10 μL per well. […] After incubation at room temperature for 1 hour, fluorescence intensity changes caused by cell receptor and ligand changes were detected using 665 nm (acceptor) and 620 nm (donor) at same time.
(§6) After incubation with different drugs, the reaction rate of cells to 1-AR fluorescein-labeled known ligand was calculated as follows: Reaction rate %=(D−B)/(S−B)*100%
as §3, with “Ki” for “IC50”, “includes” for “included”

[4] = tested on: vascular smooth muscle (thoracic aorta); assay: In vitro vascular smooth muscle experiment (norepinephrine-induced contraction of thoracic aorta rings); set-up: species or system Wistar rats; conditions: isolated rat thoracic aorta rings, norepinephrine 10^−7 mol/L
Experimental: Healthy male Wistar rats were hit head to cause faint. The abdominal cavity was quickly cut, and the thoracic aorta was taken out. The attached tissue was separated and cut into 2-3 mm vascular rings. The experiment was carried out in the same manner as in urethral smooth muscle experiment. The resting tension applied was 1 g, and when baseline was stabilized, norepinephrine was added with a final concentration of 10^−7 mol/L in bath tube. When the contraction curve reached the highest point, rinse was performed immediately to recover to baseline levels. When baseline was stabilized, test drug with different concentrations was added respectively, and incubated 3-5 mins. 20 μL 1×10^−4 M norepinephrine was added with a final concentration of 10^−7 mol/L in bath tube, and contraction curve was recorded.

α1A-AR [5] = molecular target: T3, α1A-AR; assay: Tag-lite receptor binding assay, HEK293 cells expressing SNAP-α1A-AR
From the text: as §4, §5, §6
as §3, with “Ki” for “IC50”, “includes” for “included”

## COc1cc2c(cc1OC)C1Cc3cc4c(cc3CN1CC2)OCO4 (centres unmarked) [DC037008]
α1B-AR [1]
  IC50: 68800 nM
α1D-AR
  IC50: 2120 nM
α1A-AR [2]
  IC50: 552 nM
  α1B/α1A: 125

## COc1cc2c(cc1OC)CN1CCc3cc(OC)c(OC)cc3C1C2 (centres unmarked) [DC037001]
α1B-AR [1]
  IC50: 174 nM
α1D-AR
  IC50: 8710 nM
α1A-AR [2]
  IC50: 123 nM
  α1B/α1A: 1.4

## COc1cc2c(cc1OC)CN1CCc3cc4c(cc3C1C2)OCO4 (centres unmarked) [DC037012]
α1B-AR [1]
  IC50: 7520 nM
α1D-AR
  IC50: 242 nM
α1A-AR [2]
  IC50: 257 nM
  α1B/α1A: 29.2

## COc1cc2c(c(OC)c1OC)CN1CCc3cc4c(cc3[C@@H]1C2)OCO4 [DC037010]
α1B-AR [1]
  IC50: 1200 nM
α1D-AR
  IC50: 2560 nM
α1A-AR [2]
  IC50: 238 nM
  α1B/α1A: 5.0

## COc1ccc2c(c1)CCN1Cc3cc(OC)c(OC)cc3C[C@@H]21 [DC037004]
α1B-AR [1]
  IC50: 189 nM
α1D-AR
  IC50: 422 nM
α1A-AR [2]
  IC50: 93.9 nM
  α1B/α1A: 2.0

## COc1cc2c(cc1OC)[C@@H]1Cc3cc4c(cc3CN1CC2)OCO4 [DC037005]
α1B-AR [1]
  IC50: 1650 nM
α1D-AR
  IC50: 2950 nM
α1A-AR [2]
  IC50: 160 nM
  α1B/α1A: 10.3

## COc1cc2c(cc1OCc1ccccc1)CN1CCc3cc4c(cc3[C@@H]1C2)OCO4 [DC037014]
α1B-AR [1]
  IC50: 35900 nM
α1D-AR
  IC50: 1340 nM
α1A-AR [2]
  IC50: 303 nM
  α1B/α1A: 118.5

## COc1ccc(OC)c2c1C[C@H]1c3cc4c(cc3CCN1C2)OCO4 [DC037007]
α1B-AR [1]
  IC50: 13000 nM
α1D-AR
  IC50: 75.8 nM
α1A-AR [2]
  IC50: 969 nM
  α1B/α1A: 13.4

## COc1cc2c(cc1OCC(F)F)C[C@H]1c3cc4c(cc3CCN1C2)OCO4 [DC037018]
Urethra smooth muscle
  IC50: 147 nM
  Urethra inhibition rate (%): 61%
  Aorta/Urethra: 61
α1B-AR [3]
  IC50: 48.6 nM
[4]
  IC50: 2210 nM
α1A-AR [5]; Tag-lite binding, HEK293 SNAP-α1A-AR
  IC50: 0.95 nM
α1A-AR [5]; ratio of Tag-lite binding values
  α1B/α1A: 51.2

## COc1cc2c(cc1O)[C@@H]1Cc3cc4c(cc3CN1CC2)OCO4 [DC037013]
α1B-AR [1]
  IC50: 4310 nM
α1D-AR
  IC50: 263 nM
α1A-AR [2]
  IC50: 268 nM
  α1B/α1A: 16.1

## COc1cc2c(cc1OC)[C@@H]1Cc3cc(C)cc(C)c3CN1CC2 [DC037011]
α1B-AR [1]
  IC50: 34300 nM
α1D-AR
  IC50: 2640 nM
α1A-AR [2]
  IC50: 532 nM
  α1B/α1A: 64.4

## COc1cc2c(cc1OC)CN1CCc3cc(OC)c(OC)cc3[C@@H]1C2 [DC037003]
α1B-AR [1]
  IC50: 249000 nM
α1D-AR
  IC50: 2480 nM
α1A-AR [2]
  IC50: 91.3 nM
  α1B/α1A: 2731

## COc1cc2c(cc1OC)[C@@H](C)N1CCc3cc(OC)c(OC)cc3[C@@H]1C2 [DC037002]
α1B-AR [1]
  IC50: 17200 nM
α1D-AR
  IC50: 2520 nM
α1A-AR [2]
  IC50: 502 nM
  α1B/α1A: 34.2

## CCOc1ccccc1OCCN[C@H](C)Cc1ccc(OC)c(S(N)(=O)=O)c1 [Tamsulosin, reference compound]
Urethra smooth muscle
  IC50: 0.47 nM
  Urethra inhibition rate (%): 82%
  Aorta/Urethra: 0.53
α1B-AR [1]
  IC50: 3.08 nM
α1D-AR
  IC50: 0.18 nM
α1B-AR [3]
  IC50: 0.16 nM
[4]
  IC50: 0.25 nM
